# Reference: patent US20060251702A1, “Implantable materials and methods for inhibiting tissue adhesion formation” (Cook Biotech Incorporated, priority 2005, published 2006)
# “And” between values parts separate entries of the source, which are not always exact repeats. Identical values can stand only once. Like-named read-outs stand apart in the source and are kept apart here.
# Test system: post-surgical adhesions on the traumatized cecal surface
# Type: in vivo
# Conditions: score of one rat, 21 days
# Description: The samples were then removed from solution, frozen at −80° C. overnight, relyophilized, and sterilized with ethylene oxide.
# Forty-nine 250-300 gram Sprague-Dawley rats were anesthetized with an IM dose of ketamine and xylazine and prepared for aseptic abdominal surgery. […] The adjacent wall of the peritoneal cavity was mildly abraded with the same nylon brush and the cecum was either placed back into the abdominal cavity, covered with biomaterial, which was anchored to the abdominal cavity by suturing it to mesenchymal fat, or injected with a solution and placed back into the abdominal cavity.
# Following cecal abrasion, groups of rats received one of the following 8 treatments: • Treatment 1: (Control) No biomaterials were implanted following cecal injury. […] Care was taken to avoid perforating the bowel N=6 rats. • Treatment 3: (PPM) a piece of polypropylene mesh (Bard) was placed over the abraded surface and secured with non-absorbable nylon suture. […] N=6 rats. • Treatment 8: […] DMSO was delivered to the peritoneal cavity prior to closure. N=6 rats.
# Following placement of the cecum back into the abdominal cavity, the abdominal wall was closed with 4-0 silk and the skin closed with surgical staples.
# [1] = IP high dose: 2.0 mg nimesulide in 1.0 mL DMSO to the peritoneal cavity
# [2] = IP low dose: 0.5 mg nimesulide in 1.0 mL DMSO to the peritoneal cavity
smiles,measurement,setting,value
CS(=O)(=O)Nc1ccc([N+](=O)[O-])cc1Oc1ccccc1 [nimesulide],"Extent (of adhesions, score)",[1],1 (1=adhesions on 25% of the traumatized cecal surface) (3×) and 0
same,"Tenacity (of adhesions, score)",[1],2 (2×) and 1 and 0
same,"Extent (of adhesions, score)",[2],2 (2=adhesions on 50% of the traumatized cecal surface)
same,"Tenacity (of adhesions, score)",[2],2
